In patent US20210023238A1, “TRIPTOLIDE ANTIBODY CONJUGATES” (City of Hope, priority 2019, published 2021):

What was measured:
Format in all cases: cell-based
H520 NSCLC cells = assay: CCK-8 cell proliferation / cytotoxicity, H520; conditions: Homo sapiens, NCI-H520, H520 (EGFR+/-), 72 h
Protocol: (§1) H520, H1299, and A549 cells were plated at a density of 3×10^3 cells/well in 96-well multiplates. […] Then after, 10 ul of CCK-8 solution was added to each well and further developed for 2 h. The absorbance values were detected at a wavelength of 450 nm using a Bio-Rad microplate reader. The cell viability was calculated by the optical density (OD) values of treated groups/OD values of control groups (Vehicle/PBS)×100%.

A549 NSCLC cells = assay: CCK-8 cell proliferation / cytotoxicity, A549; conditions: Homo sapiens, A549 (EGFR+++), 72 h
Protocol: as §1

H1299 NSCLC cells = assay: CCK-8 cell proliferation / cytotoxicity, H1299; conditions: Homo sapiens, NCI-H1299, H1299 (EGFR+++), 72 h
Protocol: as §1

Q: Which IC50 (H520 NSCLC cells) does the source give for `CC(C)[C@]12O[C@H]1[C@@H]1O[C@]13[C@]1(O[C@H]1C[C@H]1C4=C(CC[C@@]13C)C(=O)OC4)[C@@H]2O` [TRP, Triptolide] here?
A: 3.13 nM

Q: What about the IC50 (A549 NSCLC cells) of the same compound?
A: 25 to 50 nM

Q: What about the IC50 (H1299 NSCLC cells) of the same compound?
A: 6.25 to 12.5 nM
